Assays:
hGluR1 flip = target: T1, hGluR1 flip (Homo sapiens, UniProt P42261); assay: AMPA receptor function-enhancing activity using calcium influx as index; type: cell-based; details: test compound 30 μM with 3 mM glutamic acid; CHO-K1/GluR1 flip/stargazin-expressing cells; 100% = 3 mM glutamic acid + 300 μM cyclothiazide, 0% = 3 mM glutamic acid alone
T1 construct: expressed in transfected cells; host or cells: CHO-K1
Procedure, shortened: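 CHO-K1 cells co-expressing human GluR1 flip and stargazin, loaded with Calcium5 dye with 1.25 mM probenecid. Test compound at 30 μM added with 3 mM glutamate; fluorescence followed 3 min. Activity % scaled between glutamate alone (0%) and glutamate plus 300 μM cyclothiazide (100%).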

Long Evans rats = assay: Novel object recognition test; type: in vivo, rat; details: 1 mg/kg p.o.; for Novel Object Interaction (%): 1 hr before acquisition trial and 1 hr before retention trial, retention trial 48 hr after acquisition, mean ± standard error; for novel object interaction (result in words): rats
Source text: Experimental Example 2 Novel Object Recognition Test (1) Animals
Male Long Evans rats were supplied by Japan SLC, and used at 7-week-old in the experiments. After arrival to the vivarium, animals were allowed a minimum of 1 week for acclimation. They were housed under a 12:12-h light/dark cycle in a temperature- and humidity-controlled laboratory and allowed food and water ad libitum.
A test compound was suspended in 0.5% methylcellulose in distilled water and orally administered (p.o.). All test compounds were dosed in a volume of 2 mL/kg body weight for rats.
(3) Novel Object Recognition Test
Novel object recognition test is a test system utilizing the novel object preference characteristics of rodents. This novel object recognition test consists of two trials, “acquisition trial” and “retention trial”, and, when an interval between these two trials is short, rodents spend a longer period for novel object exploration behaviors, and the preference dissipates as the interval gets longer. From this, the behavioral change in the novel object recognition test is considered to reflect the rodents' memory of the object during the acquisition trial. In this experimental example, the retention trial was carried out 48 hr after the acquisition trial. On the day before the test, for acclimation, Long-Evans ats were allowed to freely move about the test box (40×40×50 cm) for 10 minutes. On the test day, the rats were acclimated to the test room for about 1 hr prior to the test. The test compound (Compound A (Example 14), Compound B (Example 48), 1 mg/kg) were orally administered to the rats twice 1 hr before the acquisition trial and 1 hr before the retention trial. For the acquisition trial, two identical objects (A1, A2) were placed in the test box. The rats were put in the test box for 3 min, and the duration contacting each object was measured. The retention trial was carried out 48 hr after the acquisition trial. For the retention trial, the familiar object (A3) used for the acquisition trial and the novel object (B) different shape from A3 were placed in the test box. The rats were put in the test box for 3 min. The duration contacting each object in the acquisition trial and the retention trial, and the novel object interaction (%) was calculated. The novel object interaction (%) was expressed as (the duration contacting the novel object)/[(the duration contacting the novel object)+(the duration contacting the familiar object)]×100(%) at mean±standard error.

T1 sequence (P42261 19-906 isoform P42261-2 limits assumed): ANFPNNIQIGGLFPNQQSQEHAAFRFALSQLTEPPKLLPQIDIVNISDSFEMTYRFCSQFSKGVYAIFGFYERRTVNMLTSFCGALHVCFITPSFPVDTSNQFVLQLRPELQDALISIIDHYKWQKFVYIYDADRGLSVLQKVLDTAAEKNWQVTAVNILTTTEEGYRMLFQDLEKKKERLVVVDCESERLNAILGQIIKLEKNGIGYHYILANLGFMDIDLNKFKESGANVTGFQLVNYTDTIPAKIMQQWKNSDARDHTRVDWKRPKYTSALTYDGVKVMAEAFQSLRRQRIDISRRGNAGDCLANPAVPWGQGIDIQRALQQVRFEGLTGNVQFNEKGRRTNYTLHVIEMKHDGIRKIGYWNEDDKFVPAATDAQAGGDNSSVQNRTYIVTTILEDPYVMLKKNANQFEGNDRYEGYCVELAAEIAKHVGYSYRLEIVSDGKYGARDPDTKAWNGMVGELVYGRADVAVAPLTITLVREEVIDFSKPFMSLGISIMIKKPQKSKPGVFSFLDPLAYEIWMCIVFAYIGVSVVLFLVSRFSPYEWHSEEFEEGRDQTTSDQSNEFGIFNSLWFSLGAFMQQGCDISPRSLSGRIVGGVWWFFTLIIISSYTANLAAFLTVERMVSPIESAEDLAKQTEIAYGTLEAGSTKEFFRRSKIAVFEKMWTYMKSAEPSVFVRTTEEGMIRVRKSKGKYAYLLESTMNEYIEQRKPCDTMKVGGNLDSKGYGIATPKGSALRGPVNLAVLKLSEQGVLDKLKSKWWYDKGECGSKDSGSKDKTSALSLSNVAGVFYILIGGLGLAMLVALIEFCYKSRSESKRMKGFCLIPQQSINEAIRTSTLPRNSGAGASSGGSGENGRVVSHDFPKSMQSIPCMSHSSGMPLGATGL
T1 sequence (Q9Y698 whole entry partner): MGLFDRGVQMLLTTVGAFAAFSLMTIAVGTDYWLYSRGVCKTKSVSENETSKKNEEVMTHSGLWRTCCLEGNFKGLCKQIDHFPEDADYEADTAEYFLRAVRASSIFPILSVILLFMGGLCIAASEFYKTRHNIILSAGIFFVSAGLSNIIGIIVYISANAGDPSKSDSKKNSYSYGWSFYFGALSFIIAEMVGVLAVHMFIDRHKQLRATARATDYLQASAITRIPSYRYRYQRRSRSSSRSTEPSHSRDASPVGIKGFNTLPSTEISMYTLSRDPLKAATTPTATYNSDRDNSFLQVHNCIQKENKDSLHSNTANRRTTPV

activation at 30 µM (hGluR1 flip) [%] | Structure (SMILES) | further results
94.3 | O=C(c1ccc(-c2cccn3c(=O)c(Br)c(C(F)(F)F)nc23)cc1)N1CCOCC1 [Example 14, 3-bromo-9-(4-(morpholin-4-ylcarbonyl)phenyl)-2-(trifluoromethyl)-4H-pyrido[1,2-a]pyrimidin-4-one] | Novel Object Interaction (%) (Long Evans rats): 61.94 ± 2.33%; novel object interaction (result in words) (Long Evans rats): increased the novel object interaction
88.1 | C[C@H]1CN(C(=O)c2ccc(-c3cccn4c(=O)c(Br)c(C(F)(F)F)nc34)cc2)CCO1 [Example 48, 3-bromo-9-(4-(((2S)-2-methylmorpholin-4-yl)carbonyl)phenyl)-2-(trifluoromethyl)-4H-pyrido[1,2-a]pyrimidin-4-one] | Novel Object Interaction (%) (Long Evans rats): 61.42 ± 2.61%; novel object interaction (result in words) (Long Evans rats): increased the novel object interaction
87.9 | Cc1c(C(F)(F)F)nc2c(-c3ccc(C(=O)N[C@H]4CCCOC4)c(F)c3)cccn2c1=O [Example 115, 2-fluoro-4-(3-methyl-4-oxo-2-(trifluoromethyl)-4H-pyrido[1,2-a]pyrimidin-9-yl)-N-((3S)-tetrahydro-2H-pyran-3-yl)benzamide] | 
84 | CN(CC1(C#N)CC1)C(=O)c1ccc(-c2cccn3c(=O)c(Br)c(C(F)(F)F)nc23)cc1 [Example 118, 4-(3-bromo-4-oxo-2-(trifluoromethyl)-4H-pyrido[1,2-a]pyrimidin-9-yl)-N-((1-cyanocyclopropyl)methyl)-N-methylbenzamide] | 
71 | O=C(c1ccc(-c2cccn3c(=O)c(Br)c(C(F)(F)F)nc23)cc1)N1CCOCC(F)(F)C1 [Example 119, 3-bromo-9-(4-((6,6-difluoro-1,4-oxazepan-4-yl)carbonyl)phenyl)-2-(trifluoromethyl)-4H-pyrido[1,2-a]pyrimidin-4-one] | 
71.5 | N#CC1CCN(C(=O)c2ccc(-c3cccn4c(=O)c(Br)c(C(F)(F)F)nc34)cc2)C1 (stereo not drawn) [Example 120, 1-(4-(3-bromo-4-oxo-2-(trifluoromethyl)-4H-pyrido[1,2-a]pyrimidin-9-yl)benzoyl)pyrrolidine-3-carbonitrile] | 
84.4 | Cc1c(C(F)(F)F)nc2c(-c3ccc(C(=O)N4CCC(C#N)C4)cc3)cccn2c1=O (stereo not drawn) [Example 121, 1-(4-(3-methyl-4-oxo-2-(trifluoromethyl)-4H-pyrido[1,2-a]pyrimidin-9-yl)benzoyl)pyrrolidine-3-carbonitrile] | 
71.4 | O=C(N[C@H]1CCCOC1)c1ccc(-c2cccn3c(=O)cc(C(F)(F)F)nc23)cc1 [Example 122, 4-(4-oxo-2-(trifluoromethyl)-4H-pyrido[1,2-a]pyrimidin-9-yl)-N-((3S)-tetrahydro-2H-pyran-3-yl)benzamide] | 
83.2 | O=C(NC1CCOCC1)c1ccc(-c2cccn3c(=O)cc(C(F)(F)F)nc23)cc1 [Example 123, 4-(4-oxo-2-(trifluoromethyl)-4H-pyrido[1,2-a]pyrimidin-9-yl)-N-(tetrahydro-2H-pyran-4-yl)benzamide] | 
86.3 | O=C(NC1CCOCC1)c1ccc(-c2cccn3c(=O)c(Br)c(C(F)(F)F)nc23)cc1F [Example 124, 4-(3-bromo-4-oxo-2-(trifluoromethyl)-4H-pyrido[1,2-a]pyrimidin-9-yl)-2-fluoro-N-(tetrahydro-2H-pyran-4-yl)benzamide] | 
86.7 | Cc1c(C(F)(F)F)nc2c(-c3ccc(C(=O)NC4CCOCC4)cc3)cccn2c1=O [Example 125, 4-(3-methyl-4-oxo-2-(trifluoromethyl)-4H-pyrido[1,2-a]pyrimidin-9-yl)-N-(tetrahydro-2H-pyran-4-yl)benzamide] | 
74.7 | O=C(c1ccc(-c2cccn3c(=O)c(Br)c(C(F)(F)F)nc23)cc1)N1CCOC2CC21 (stereo not drawn) [Example 127, 3-bromo-9-(4-(2-oxa-5-azabicyclo[4.1.0]hept-5-ylcarbonyl)phenyl)-2-(trifluoromethyl)-4H-pyrido[1,2-a]pyrimidin-4-one] | 
 | O=C(c1ccc(-c2cccn3c(=O)c(Br)c(C(F)(F)F)nc23)cc1)N1CCOC2CC21 (stereo not drawn) [Example 128, 3-bromo-9-(4-(2-oxa-5 azabicyclo[4.1.0]hept-5-ylcarbonyl)phenyl)-2-(trifluoromethyl)-4H-pyrido[1,2-a]pyrimidin-4-one] | hGluR1 flip/30 μM (%) (hGluR1 flip): 70.9%
80.4 | Cc1c(C(F)(F)F)nc2c(-c3ccc(C(=O)N4CC(F)(F)C4)c(F)c3)cccn2c1=O [Example 129, 9-(4-((3,3-difluoroazetidin-1-yl)carbonyl)-3-fluorophenyl)-3-methyl-2-(trifluoromethyl)-4H-pyrido[1,2-a]pyrimidin-4-one] | 
96 | O=C(c1ccc(-c2cccn3c(=O)c(Br)c(C(F)(F)F)nc23)cc1F)N1CC(F)(F)C1 [Example 130, 3-bromo-9-(4-((3,3-difluoroazetidin-1-yl)carbonyl)-3-fluorophenyl)-2-(trifluoromethyl)-4H-pyrido[1,2-a]pyrimidin-4-one] | 
110 | O=C(NC1CCOCC1)c1ccc(-c2cccn3c(=O)c(Cl)c(C(F)(F)F)nc23)cc1 [Example 131, 4-(3-chloro-4-oxo-2-(trifluoromethyl)-4H-pyrido[1,2-a]pyrimidin-9-yl)-N-(tetrahydro-2H-pyran-4-yl)benzamide] | 
106 | O=C(N[C@H]1CCCOC1)c1ccc(-c2cccn3c(=O)c(Cl)c(C(F)(F)F)nc23)cc1 [Example 132, 4-(3-chloro-4-oxo-2-(trifluoromethyl)-4H-pyrido[1,2-a]pyrimidin-9-yl)-N-((3S)-tetrahydro-2H-pyran-3-yl)benzamide] | 

— patent US11407748B2, “Substituted pyrido[1,2-a]pyrimidines and pyrazino[1,2-a]pyrimidines for enhancing AMPA receptor function” (Takeda Pharmaceutical Company Limited, priority 2017, dated 2022)
